Experimental data from ChEMBL document CHEMBL1687690, “Antiproliferative and differentiating activities of a novel series of histone deacetylase inhibitors” (ACS Med Chem Lett, 2010).
Calls of active or inactive are those of the source. The calls are words filed in the database; no cut-off is given here.

Columns and labels:
Histone deacetylase [1] = assay: Inhibition of HDAC activity in human NB4 cells assessed as acetylation of histone H4 after 24 hrs by Western blot analysis; assay type: cell-based; settings: nb-4
[2] = target: T1, Histone deacetylase (Homo sapiens) (UniProt Q13547+O15379+Q9UBN7+Q92769+Q9UQL6+Q8WUI4+Q9BY41+Q96DB2+P56524+Q9UKV0+Q969S8); assay: Inhibition of HDAC activity in human NB4 cells assessed as maximum acetylated tubulin at EC50 concentration after 24 hrs by Western blot analysis relative to control; assay type: cell-based; settings: NB-4
NB-4 [3] = assay: Potentiation of all-trans retinoic acid-induced human NB4 cells differentiation after 72 hrs by NBT-reductase activity assay relative HDAC inhibitor alone; assay type: functional
Histone deacetylase [4] = assay: Inhibition of HDAC activity in human NB4 cells assessed as acetylation of histone H3 after 24 hrs by Western blot analysis; assay type: cell-based; settings: nb-4
NB-4 [5] = assay: Antiproliferative activity against human NB4 cells after 24 hrs by alamar blue assay; assay type: functional, cell-based; settings: NB-4, 24 h
[6] = target: T1, Histone deacetylase (Homo sapiens); assay: Inhibition of HDAC activity in human NB4 cells assessed as maximum acetylation of histone H4 at EC50 concentration after 24 hrs by Western blot analysis relative to control; assay type: cell-based; settings: NB-4
[7] = target: T1, Histone deacetylase (Homo sapiens); assay: Inhibition of HDAC activity in human NB4 cells assessed as maximum acetylation of histone H3 at EC50 concentration after 24 hrs by Western blot analysis relative to control; assay type: cell-based; settings: NB-4
Tubulin = assay: Inhibition of HDAC activity in human NB4 cells assessed as acetylated tubulin after 24 hrs by Western blot analysis; assay type: cell-based; settings: nb-4
HCT-116 [8] = assay: Antiproliferative activity against human HCT116 cells after 24 hrs by alamar blue assay; assay type: functional, cell-based; settings: HCT-116, 24 h
HCT-116 [9] = assay: Antitumor activity against human HCT116 cells xenografted in athymic nude mouse assessed as decrease in tumor volume at 12.5 mg/kg, iv administered once daily for 5 days per week by caliper measurement; assay type: functional, organism-based; set-up: dose 12.5 mg/kg
HCT-116 [10] = assay: Antitumor activity against human HCT116 cells xenografted in athymic nude mouse assessed as decrease in tumor volume at 6.2 mg/kg, iv administered once daily for 5 days per week by caliper measurement; assay type: functional, organism-based; set-up: dose 6.2 mg/kg
[11] = Ratio of IC50 for HDAC2 to IC50 for HDAC6
HCT-116 [12] = assay: Antitumor activity against human HCT116 cells xenografted in athymic nude mouse assessed as decrease in tumor volume at 25 mg/kg, iv administered once daily for 5 days per week by caliper measurement; assay type: functional, organism-based; set-up: dose 25 mg/kg

| Compound | EC50 (Histone deacetylase [1]) [nM] | Ratio [2] | Ratio (NB-4 [3]) | EC50 (Histone deacetylase [4]) [nM] | IC50 (NB-4 [5]) [nM] | Ratio [6] | Ratio [7] | EC50 (Tubulin) [nM] | IC50 (HCT-116 [8]) [nM] | inhibition (HCT-116 [9]) | inhibition (HCT-116 [10]) | Ratio IC50 [11] | inhibition (HCT-116 [12]) |
| --- | --- | --- | --- | --- | --- | --- | --- | --- | --- | --- | --- | --- | --- |
| O=C(CCCCCN1C(=O)c2ccccc2Nc2ccccc21)NO | 1530 | 402 | 6 | 1300 | 730 | 126 | 188 | 1170 | > 10000 |  |  |  |  |
| COc1ccc2c(c1)N(CCCCCC(=O)NO)C(=O)c1ccccc1N2 | 280 | 199 | 1 | 390 | 140 | 244 | 7 | 250 | 360 |  |  |  |  |
| COc1ccc2c(c1)N(CCCCCC(=O)NO)C(=O)c1ccccc1O2 | 320 | 1780 | 7 | 200 | 140 | 206 | 61 | 90 | 310 |  |  |  |  |
| O=C(CCCCCN1C(=O)c2ccccc2Sc2ccc(Cl)cc21)NO | 360 | 13200 | 31 | 340 | 30 | 2330 | 200 | 150 | 60 | Active | inactive |  |  |
| O=C(CCCCCN1C(=O)c2ccccc2Oc2ccccc21)NO | 3270 | 2630 | 2 | 6240 | 610 | 54 | 15 | 290 | 640 |  |  | 61 |  |
| O=C(CCCCCN1C(=O)c2ccccc2Oc2ccc(Cl)cc21)NO | 530 | 932 | 1 | 380 | 160 | 9 | 3 | 440 | 200 |  |  |  |  |
| O=C(CCCCCN1C(=O)c2ccccc2Sc2ccccc21)NO | 430 | 2000 | 5 | 460 | 190 | 89 | 190 | 370 | 390 |  |  |  |  |
| CN1c2ccccc2C(=O)N(CCCCCC(=O)NO)c2ccccc21 | 2950 | 40 | 13 | 2650 | 2460 | 14 | 10 | 2740 | 8100 |  |  |  |  |
| O=C(CCCCCN1C(=O)c2ccccc2S(=O)(=O)c2ccccc21)NO | 720 | 10700 | 14 | 500 | 120 | 336 | 342 | 50 | 150 |  |  | 48 |  |
| O=C(CCCCCN1C(=O)c2ccccc2Nc2ccc(Cl)cc21)NO | 860 | 413 | 1 | 840 | 290 | 78 | 31 | 320 | 450 |  |  |  |  |
| COc1ccc2c(c1)N(CCCCCC(=O)NO)C(=O)c1ccccc1S2(=O)=O | 90 | 30600 | 79 | 30 | 20 | 1460 | 4740 | 50 | 40 |  |  |  |  |
| O=C(CCCCCN1C(=O)c2ccccc2S(=O)(=O)c2ccc(Cl)cc21)NO | 60 | 8850 | 56 | 30 | 20 | 795 | 2110 | 40 | 30 |  |  |  |  |
| COc1ccc2c(c1)N(CCCCCC(=O)NO)C(=O)c1ccccc1S2 | 150 | 47 | 16 | 190 | 30 | 28 | 12 | 130 | 90 |  |  |  | Active |
